Reference: US6117661A, “Mutant mono-oxygenase cytochrome P450cam” (BG plc, priority 1995, dated 2000)
Like-named read-outs stand apart in the source and are kept apart here.

Tests used:
[1] = target: T1, P-450cam mutant Y96A (Pseudomonas putida, UniProt P00183, Y97A); test: Substrate binding constant Kapp, method of Sligar
T1 construct: made in house; host or cells: E. coli JM109, vector pRH1091
Excerpt: (§1) Binding of potential substrates was investigated by spectroscopic methods. […] This haem spin-state shift is accompanied by an increase in the haem reduction potential which enables the physiological electron-transfer partner putidaredoxin to reduce P-450cam and initiate the catalytic hydroxylation cycle^26. The haem spin state shift is thus a qualitative indication of the likelihood of molecules shown in Tables 1 and 2 being oxidised by the wild-type and mutant P-450cam enzymes.
(§2) ^a Values are the average of two independent measurements using the
(§3) method of Sligar (S. G. Sligar, Biochemistry, 1976, 15, 5399-5406). The
(§4) value of Kapp is strongly dependent on the concentration of K^+
(§5) in the buffer. At [K^+ ] > 150 mM, Kapp for camphor is 0.6 μM
(§6) for both wildtype and Y96A. Data in this table were determined at [K^
(§7) ] = 70 mM in phosphate buffer, pH 7.4, in order to avoid # salting out o
(§8) substrates at higher ion concentrations.

[2] = target: T2, Wild type P450cam (Pseudomonas putida, UniProt P00183); type: binding, P. putida
[3] = target: T2, Wild type P450cam; test: Substrate binding constant Kapp, method of Sligar; design: made in house; host or cells: E. coli JM109, vector pRH1091
Excerpt: as §1, §2, §3, §4, §5, §6, §7, §8

[4] = target: T3, P450cam active site mutant Y96V (also C334A) (Pseudomonas putida, UniProt P00183, C335A/Y97V); type: biochemical, P. putida; conditions: for Products (%) Y96V: label = product
T3 construct: reconstituted with putidaredoxin and putidaredoxin reductase
Procedure: (§9) A buffered solution (50 mM Tris.HCI, pH 7.4), typically 3 ml in volume, containing 10 uM putidaredoxin, 2 uM putidaredoxin reductase, 1 uM cytochrome P-450cam mono-oxygenase (wild-type or mutant), 200 mM KCI, 50 ug/ml bovine liver catalase (Sigma), and 1 mM target organic compound such as cyclohexylbenzene (added as a 0.1 M stock in ethanol) was preincubated at 30° C. for 5 minutes. The enzymatic reaction was initiated by adding NADH to a total concentration of 2 mM. Further four aliquots of NADH (to increase the NADH concentration by 1 mM each time) were added in intervals of 10 minutes, and 30 minutes into the incubation one aliquot of substrate (to increase the concentration by 1 mM) was also added. The reaction was quenched after 60 minutes by adding 0.5 ml chloroform and vortexing the mixture. The phases were separated by centrifugation (4000 g) at 4° C. The chloroform layer was analyzed by gas chromatography.
(§10) For many substrate compounds such as cyclohexylbenzene for which not all the P-450cam-mediated oxidation products are commercially available, the chloroform extracts are evaporated to dryness under a stream of nitrogen. The residues were extracted with hexane and the oxidation products separated by high performance liquid chromatography, eluting with a hexane/isopropanol gradient. The purified products were then identified by mass spectroscopy and particularly nuclear magnetic resonance spectroscopy.
(§11) The NADH concentration can be monitored at 340 nm and, in all cases, more substrates and NADH are added during the incubation.

[5] = target: T4, P450cam active site mutant Y96L (also C334A) (Pseudomonas putida, UniProt P00183, C335A/Y97L); type: biochemical, P. putida; conditions: for Products (%) Y96L: label = product
T4 construct: reconstituted with putidaredoxin and putidaredoxin reductase
Procedure: as §9, §10, §11

[6] = target: T5, P450cam active site mutant F87A-F96G-F193A (Pseudomonas putida, UniProt P00183, C335A/F194A/F88A/Y97G); type: biochemical, P. putida; conditions: for Products (%) F87A-F96G-F193A: label = product
T5 construct: reconstituted with putidaredoxin and putidaredoxin reductase
Procedure: as §9, §10, §11

[7] = target: T6, P450cam active site mutant Y96A (also C334A) (Pseudomonas putida, UniProt P00183, C335A/Y97A); type: biochemical, P. putida; conditions: for Products(%) Y96A: label = product
T6 construct: reconstituted with putidaredoxin and putidaredoxin reductase
Procedure: as §9, §10, §11

[8] = target: T7, P450cam active site mutant Y96F (also C334A) (Pseudomonas putida, UniProt P00183, C335A/Y97F); type: biochemical, P. putida; conditions: for Products(%) Y96F: label = product
T7 construct: reconstituted with putidaredoxin and putidaredoxin reductase
Procedure: as §9, §10, §11

[9] = target: T8, P450cam WT (Pseudomonas putida, UniProt P00183); test: Product distribution following oxidation of substrates (GC); type: biochemical, P. putida; conditions: for Products (%) WT: label = product
T8 construct: reconstituted with putidaredoxin and putidaredoxin reductase
Procedure: as §9, §10, §11

[10] = target: P450cam Mutant Y96A (Pseudomonas putida, UniProt P00183, C335A/Y97A); type: binding, P. putida
[11] = Protein dimerisation by anion exchange FPLC and gel filtration; type: physicochemical; conditions: Resource Q FPLC and Superose 12 gel filtration; C334A even at high concentrations (0.1 mM range)
Excerpt: We concluded that wild-type P-450cam underwent dimerisation by intermolecular S--S disulphide bond formation between the surface cysteine 334 on two protein molecules.

[12] = Protein aggregation upon standing/storage; type: physicochemical; conditions: mM concentrations at room temperature over a period of three days
Excerpt: The C334A mutation has the obvious benefit of removing unwanted protein dimerisation, thus ensuring the presence of a single species in solution at all times. In addition, we noted a completely unexpected benefit of this mutation. […] Aggregation will also occur during turnover, especially at the higher P-450cam concentrations required in any economically viable industrial application in, for example, synthesis of organic molecules. […] Thus, the C334A mutation has beneficial effects in protein handling, storage, and increased catalyst lifetime.

[13] = -- = no shift, nd = not determined

Molecule: CC12CCC(CC1=O)C2(C)C (single isomer, unassigned) [camphor]
- Kd [1]: 600 nM
- haem spin-state conversion on substrate binding ([2]; Soret band 418 nm to 392 nm): fully converted the haem to the 5-co-ordinated, high-spin form
- Kd [3]: 600 nM

Molecule: Oc1cccc2ccccc12 [1-ol]
- Products (%) Y96V ([4]; substrate naphthalene): 100%
- Products (%) Y96L ([5]; substrate naphthalene): 100%
- Products (%) F87A-F96G-F193A ([6]; substrate naphthalene): 100%
- Products(%) Y96A ([7]; substrate naphthalene): 100%
- Products(%) Y96F ([8]; substrate naphthalene): 100%
- Products (%) WT ([9]; substrate naphthalene): 100%

Molecule: Oc1ccc2ccccc2c1 [2-ol]
- Products (%) Y96V ([4]; substrate naphthalene): 0%
- Products (%) Y96L ([5]; substrate naphthalene): 0%
- Products (%) F87A-F96G-F193A ([6]; substrate naphthalene): 0%
- Products(%) Y96A ([7]; substrate naphthalene): 0%
- Products(%) Y96F ([8]; substrate naphthalene): 0%
- Products (%) WT ([9]; substrate naphthalene): 0%

Molecule: c1ccc2c(c1)-c1cccc3cccc-2c13 [Fluoranthene]
- Mutant Y96A Vs DTT [10]: 10
- Mutant Y96A ΔSpin high/low [10]: 20
- Wild type Vs DTT [2]: 5
- Total products F87A-F96G-F193A ([6]; substrate fluoranthene): 0.2 area/10^6
- Total products Y96A ([7]; substrate fluoranthene): 2.7 area/10^6
- Total products WT ([9]; substrate fluoranthene): 0 area/10^6

Molecule: c1ccc2ccccc2c1 [Naphthalene]
- Mutant Y96A Vs DTT [10]: 20
- Mutant Y96A ΔSpin high/low [10, 13]: 15
- Total products Y96V ([4]; substrate naphthalene): 1.4 area/10^5
- Total products Y96L ([5]; substrate naphthalene): 0.7 area/10^5
- Total products F87A-F96G-F193A ([6]; substrate naphthalene): 0.1 area/10^5
- Total products Y96A ([7]; substrate naphthalene): 1.1 area/10^5
- Total products Y96F ([8]; substrate naphthalene): 2.4 area/10^5
- Total products WT ([9]; substrate naphthalene): 0.016 area/10^5

Molecule: c1ccc2c(c1)ccc1ccccc12 [Phenanthrene]
- Mutant Y96A Vs DTT [10]: 20
- Mutant Y96A ΔSpin high/low [10, 13]: 20
- Total products Y96V ([4]; substrate phenanthrene): 1.6 area/10^6
- Total products Y96L ([5]; substrate phenanthrene): 2.8 area/10^6
- Total products F87A-F96G-F193A ([6]; substrate phenanthrene): 0.065 area/10^6
- Total products Y96A ([7]; substrate phenanthrene): 7.0 area/10^6
- Total products Y96F ([8]; substrate phenanthrene): 4.5 area/10^6
- Total products WT ([9]; substrate phenanthrene): 0.075 area/10^6

Molecule: c1cc2ccc3cccc4ccc(c1)c2c34 [Pyrene]
- Total products Y96V ([4]; substrate pyrene): 1.6 area/10^6
- Total products Y96L ([5]; substrate pyrene): 1.5 area/10^6
- Total products F87A-F96G-F193A ([6]; substrate pyrene): 0.02 area/10^6
- Total products Y96A ([7]; substrate pyrene): 1.2 area/10^6
- Total products Y96F ([8]; substrate pyrene): 1.5 area/10^6
- Total products WT ([9]; substrate pyrene): 0 area/10^6

B1: C334A: P-450cam surface mutant, cysteine 334 substituted to alanine (protein, UniProt P00183 2-415, looked up, variant C334A)
Camphor 5-monooxygenase: TTETIQSNANLAPLPPHVPEHLVFDFDMYNPSNLSAGVQEAWAVLQESNVPDLVWTRCNGGHWIATRGQLIREAYEDYRHFSSECPFIPREAGEAYDFIPTSMDPPEQRQFRALANQVVGMPVVDKLENRIQELACSLIESLRPQGQCNFTEDYAEPFPIRIFMLLAGLPEEDIPHLKYLTDQMTRPDGSMTFAEAKEALYDYLIPIIEQRRQKPGTDAISIVANGQVNGRPITSDEAKRMCGLLLVGGLDTVVNFLSFSMEFLAKSPEHRQELIERPERIPAACEELLRRFSLVADGRILTSDYEFHGVQLKKGDQILLPQMLSGLDERENAAPMHVDFSRQKVSHTTFGHGSHLCLGQHLARREIIVTLKEWLTRIPDFSIAPGAQIQHKSGIVSGVQALPLVWDPATTKAV
- presence of protein dimer [11]: no dimer was detected
- aggregation [12]: did not show any evidence of aggregation
